Columns and labels:
[1] = tested on: rabbit serum obtained by immunizing a rabbit with the SARS-CoV strain Frankfurt 1; type: binding; design: Binding of a rabbit serum to linear peptides / Binding of a rabbit serum to looped peptides / Rabbit serum linear peptides / Rabbit serum looped peptides / Binding of a rabbit serum to linear peptides of protein N of SARS-CoV Urbani (Rabbit serum linear peptides) / Binding of a rabbit serum to looped/cyclic peptides of protein N of SARS-CoV Urbani (Rabbit serum looped peptides): unit not given here
[2] = tested on: antibodies in sera from SARS patients (sera 1a, 1b, 2, 6, 37, 62, London, SARS-yellow, SARS-green); type: binding, human; design: Binding of serum 6 to linear peptides of protein X1 of SARS-CoV Urbani / Binding of serum 37 to linear peptides of protein X1 of SARS-CoV Urbani / Binding of serum 6 to looped/cyclic peptide (PEPSCAN-ELISA) / Binding of serum 37 to looped/cyclic peptide (PEPSCAN-ELISA) / Binding of serum 37 to looped/cyclic peptides of protein X1 of SARS-CoV Urbani / Binding of serum 6 to linear peptides of protein X2 / Binding of serum 37 to linear peptides of protein X2 / Binding of serum 37 to looped/cyclic peptides of protein X2 of SARS-CoV Urbani / Binding of serum 6 to linear peptides of protein M of SARS-CoV Urbani / Binding of serum 37 to linear peptides of protein M of SARS-CoV Urbani / Binding of serum 6 to looped/cyclic peptides of protein M of SARS-CoV Urbani / Binding of serum 37 to looped/cyclic peptides of protein M of SARS-CoV Urbani / Binding of serum 6 to linear peptides of protein X3 of SARS-CoV Urbani / Binding of serum 37 to linear peptides of protein X3 of SARS-CoV Urbani / Binding of serum 37 to looped/cyclic peptides of protein X3 of SARS-CoV Urbani / Binding of serum 6 to linear peptides of protein X4 of SARS-CoV Urbani / Binding of serum 37 to linear peptides of protein X4 of SARS-CoV Urbani / Binding of serum 37 to looped/cyclic peptides of protein X4 of SARS-CoV Urbani / Binding of serum 6 to linear peptides of protein X5 of SARS-CoV Urbani / Binding of serum 37 to linear peptides of protein X5 of SARS-CoV Urbani / Binding of serum 37 to looped/cyclic peptides of protein X5 of SARS-CoV Urbani / Binding of serum 6 to linear peptides of protein N of SARS-CoV Urbani / Binding of serum 37 to linear peptides of protein N of SARS-CoV Urbani / Binding of serum 6 to linear peptide (PEPSCAN-ELISA) / Binding of serum 1a to looped/cyclic peptides of protein N of SARS-CoV Urbani / Binding of serum 1b to looped/cyclic peptides of protein N of SARS-CoV Urbani / Binding of serum 2 to looped/cyclic peptides of protein N of SARS-CoV Urbani / Binding of serum 6 to looped/cyclic peptides of protein N of SARS-CoV Urbani / Binding of serum 37 to looped/cyclic peptides of protein N of SARS-CoV Urbani / Binding of serum 62 to looped/cyclic peptides of protein N of SARS-CoV Urbani / Binding of serum London to looped/cyclic peptides of protein N of SARS-CoV Urbani / Binding of serum SARS-green to looped/cyclic peptides of protein N of SARS-CoV Urbani: unit not given here
[3] = tested on: control sera (pooled serum of ten healthy LUMC hospital workers; commercial negative donor pooled serum from the Dutch bloodbank); type: binding, human; design: Binding of Control serum LUMC to linear peptides / Binding of Control serum Blood-bank to linear peptides / Binding of Control serum LUMC to looped peptides / Binding of Control Serum Blood-Bank to Looped peptides / Binding of Control serum LUMC to linear peptides of the protein M of SARS-CoV Urbani / Binding of Control serum Blood-bank to linear peptides of the protein M of SARS-CoV Urbani / Binding of Control serum LUMC to looped peptides of the protein M of SARS-CoV Urbani / Binding of Control Serum Blood-Bank to Looped peptides of the protein M of SARS-CoV Urbani: unit not given here

## FLIVAALVFLILCFT
[1]
  Rabbit serum linear peptides: 0.4
  Rabbit serum looped peptides: 0.3
[2]
  Binding of serum 1a to linear peptides of protein X4 of SARS-CoV Urbani: 0.6
  Binding of serum 1a to looped/cyclic peptides of protein X4 of SARS-CoV Urbani: 0.7
  Binding of serum 1b to linear peptides of protein X4 of SARS-CoV Urbani: 0.5
  Binding of serum 1b to looped/cyclic peptides of protein X4 of SARS-CoV Urbani: 0.4
  Binding of serum 2 to linear peptides of protein X4 of SARS-CoV Urbani: 0.4
  Binding of serum 2 to looped/cyclic peptides of protein X4 of SARS-CoV Urbani: 0.7
  Binding of serum 6 to linear peptides of protein X4 of SARS-CoV Urbani: 0.5
  Binding of serum 6 to looped/cyclic peptides of protein X4 of SARS-CoV Urbani: 0.4
  Binding of serum 37 to linear peptides of protein X4 of SARS-CoV Urbani: 0.7
  Binding of serum 37 to looped/cyclic peptides of protein X4 of SARS-CoV Urbani: 0.7
  Binding of serum 62 to linear peptides of protein X4 of SARS-CoV Urbani: 0.7
  Binding of serum 62 to looped/cyclic peptides of protein X4 of SARS-CoV Urbani: 0.6
  Binding of serum London to linear peptides of protein X4 of SARS-CoV Urbani: 0.6
  Binding of serum London to looped/cyclic peptides of protein X4 of SARS-CoV Urbani: 0.3
  Binding of serum SARS-green to linear peptides of protein X4 of SARS-CoV Urbani: 0.5
  Binding of serum SARS-green to looped/cyclic peptides of protein X4 of SARS-CoV Urbani: 0.5
  Binding of serum SARS-yellow to linear peptides of protein X4 of SARS-CoV Urbani: 0.7
  Binding of serum SARS-yellow to looped/cyclic peptides of protein X4 of SARS-CoV Urbani: 0.5
[3]
  Binding of Control Serum Blood-Bank to Looped peptides: 0.7
  Binding of Control serum Blood-bank to linear peptides: 0.4
  Binding of Control serum LUMC to linear peptides: 0.4
  Binding of Control serum LUMC to looped peptides: 0.6

## FLTLIVFTSCELYHY
[1]
  Rabbit serum linear peptides: 0.4
  Rabbit serum looped peptides: 0.5
[2]
  Binding of serum 1a to linear peptides of protein X4 of SARS-CoV Urbani: 0.7
  Binding of serum 1a to looped/cyclic peptides of protein X4 of SARS-CoV Urbani: 0.8
  Binding of serum 1b to linear peptides of protein X4 of SARS-CoV Urbani: 0.6
  Binding of serum 1b to looped/cyclic peptides of protein X4 of SARS-CoV Urbani: 1.7
  Binding of serum 2 to linear peptides of protein X4 of SARS-CoV Urbani: 0.5
  Binding of serum 2 to looped/cyclic peptides of protein X4 of SARS-CoV Urbani: 0.8
  Binding of serum 6 to linear peptides of protein X4 of SARS-CoV Urbani: 0.5
  Binding of serum 6 to looped/cyclic peptides of protein X4 of SARS-CoV Urbani: 0.5
  Binding of serum 37 to linear peptides of protein X4 of SARS-CoV Urbani: 0.7
  Binding of serum 37 to looped/cyclic peptides of protein X4 of SARS-CoV Urbani: 0.7
  Binding of serum 62 to linear peptides of protein X4 of SARS-CoV Urbani: 0.7
  Binding of serum 62 to looped/cyclic peptides of protein X4 of SARS-CoV Urbani: 0.7
  Binding of serum London to linear peptides of protein X4 of SARS-CoV Urbani: 0.6
  Binding of serum London to looped/cyclic peptides of protein X4 of SARS-CoV Urbani: 0.3
  Binding of serum SARS-green to linear peptides of protein X4 of SARS-CoV Urbani: 0.6
  Binding of serum SARS-green to looped/cyclic peptides of protein X4 of SARS-CoV Urbani: 0.3
  Binding of serum SARS-yellow to linear peptides of protein X4 of SARS-CoV Urbani: 0.6
  Binding of serum SARS-yellow to looped/cyclic peptides of protein X4 of SARS-CoV Urbani: 0.7
[3]
  Binding of Control Serum Blood-Bank to Looped peptides: 0.6
  Binding of Control serum Blood-bank to linear peptides: 0.6
  Binding of Control serum LUMC to linear peptides: 0.7
  Binding of Control serum LUMC to looped peptides: 0.7

## FLWLLWPVTLACFVL
[1]
  Rabbit serum linear peptides: 0.3
  Rabbit serum looped peptides: 0.4
[2]
  Binding of serum 1a to linear peptides of protein M of SARS-CoV Urbani: 0.6
  Binding of serum 1a to looped/cyclic peptides of protein M of SARS-CoV Urbani: 0.6
  Binding of serum 1b to linear peptides of protein M of SARS-CoV Urbani: 0.4
  Binding of serum 1b to looped/cyclic peptides of protein M of SARS-CoV Urbani: 0.5
  Binding of serum 2 to linear peptides of protein M of SARS-CoV Urbani: 0.5
  Binding of serum 2 to looped/cyclic peptides of protein M of SARS-CoV Urbani: 0.6
  Binding of serum 6 to linear peptides of protein M of SARS-CoV Urbani: 0.3
  Binding of serum 6 to looped/cyclic peptides of protein M of SARS-CoV Urbani: 0.4
  Binding of serum 37 to linear peptides of protein M of SARS-CoV Urbani: 0.6
  Binding of serum 37 to looped/cyclic peptides of protein M of SARS-CoV Urbani: 0.6
  Binding of serum 62 to linear peptides of protein M of SARS-CoV Urbani: 0.7
  Binding of serum 62 to looped/cyclic peptides of protein M of SARS-CoV Urbani: 0.6
  Binding of serum London to linear peptides of protein M of SARS-CoV Urbani: 0.4
  Binding of serum London to looped/cyclic peptides of protein M of SARS-CoV Urbani: 0.2
  Binding of serum SARS-green to linear peptides of protein M of SARS-CoV Urbani: 0.2
  Binding of serum SARS-green to looped/cyclic peptides of protein M of SARS-CoV Urbani: 0.2
  Binding of serum SARS-yellow to linear peptides of protein M of SARS-CoV Urbani: 0.1
  Binding of serum SARS-yellow to looped/cyclic peptides of protein M of SARS-CoV Urbani: 0.7
[3]
  Binding of Control Serum Blood-Bank to Looped peptides of the protein M of SARS-CoV Urbani: 0.5
  Binding of Control serum Blood-bank to linear peptides of the protein M of SARS-CoV Urbani: 0.4
  Binding of Control serum LUMC to linear peptides of the protein M of SARS-CoV Urbani: 0.2
  Binding of Control serum LUMC to looped peptides of the protein M of SARS-CoV Urbani: 0.7

Reference: US20070128217A1 (priority 2003, published 2007)
